Assay results taken from US10030004B2, “Compounds and methods of use” (Medivation Technologies LLC, priority 2014, dated 2018).
Where two headings read alike, the source gives them in different places.

Experiments:
[1] = Pharmacokinetics and bioavailability in male mice after a single dose; assay type: in vivo; conditions: for half-life: read-out: Terminal t1/2 (converted)
[2] = Plasma and brain concentrations at 0.5 and 1 h in mice; assay type: in vivo; conditions: for concentration at 0.5 h / concentration at 1 h: male, mouse
ALK2 (ACVR1) = ALK2 (ACVR1) (Homo sapiens (Human), UniProt Q04771); test: In vitro kinase assay, ALK2; assay type: biochemical; conditions: read-out: Inhibition of ALK2 IC50
ALK3 (BMPR1A) = ALK3 (BMPR1A) (Homo sapiens (Human), UniProt P36894); test: In vitro kinase assay, ALK3; assay type: biochemical; conditions: read-out: Inhibition of ALK3 IC50
ALK6 (BMPR1B) = ALK6 (BMPR1B) (Homo sapiens (Human), UniProt O00238); test: In vitro kinase assay, ALK6; assay type: biochemical; conditions: 10 μM ATP; read-out: Inhibition of ALK6 IC50
ALK1 (ACVRL1) = ALK1 (ACVRL1) (Homo sapiens (Human), UniProt P37023); test: In vitro kinase assay, ALK1; assay type: biochemical; conditions: 10 μM ATP; read-out: Inhibition of ALK1 IC50
[3] = mouse, plasma, intravenous, 2 mg/kg
[4] = brain, 2 mg/kg, IV, 0.5 h, read-out: Brain Concentration
[5] = brain, 2 mg/kg, IV, 1 h, read-out: Brain Concentration
[6] = plasma, 2 mg/kg, IV, 0.5 h, read-out: Plasma Concentration
[7] = plasma, 2 mg/kg, IV, 1 h, read-out: Plasma Concentration
[8] = plasma, 10 mg/kg, PO, 0.5 h, read-out: Plasma Concentration
[9] = plasma, 10 mg/kg, PO, 1 h, read-out: Plasma Concentration

Sequence of ALK6 (BMPR1B) (O00238 14-502): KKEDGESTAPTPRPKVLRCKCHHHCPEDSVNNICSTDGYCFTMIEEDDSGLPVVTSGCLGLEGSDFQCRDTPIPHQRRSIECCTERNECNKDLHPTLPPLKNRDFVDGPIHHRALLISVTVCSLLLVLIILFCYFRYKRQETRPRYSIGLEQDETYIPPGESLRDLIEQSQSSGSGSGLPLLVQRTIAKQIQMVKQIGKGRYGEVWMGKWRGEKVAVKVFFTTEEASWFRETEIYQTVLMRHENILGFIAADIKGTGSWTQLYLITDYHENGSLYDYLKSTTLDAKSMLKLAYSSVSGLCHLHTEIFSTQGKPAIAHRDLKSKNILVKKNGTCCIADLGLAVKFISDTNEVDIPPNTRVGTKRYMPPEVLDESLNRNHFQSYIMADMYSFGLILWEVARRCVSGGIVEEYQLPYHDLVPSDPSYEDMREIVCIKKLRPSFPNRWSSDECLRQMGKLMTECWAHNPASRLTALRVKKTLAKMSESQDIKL
Sequence of ALK3 (BMPR1A) (P36894 24-532): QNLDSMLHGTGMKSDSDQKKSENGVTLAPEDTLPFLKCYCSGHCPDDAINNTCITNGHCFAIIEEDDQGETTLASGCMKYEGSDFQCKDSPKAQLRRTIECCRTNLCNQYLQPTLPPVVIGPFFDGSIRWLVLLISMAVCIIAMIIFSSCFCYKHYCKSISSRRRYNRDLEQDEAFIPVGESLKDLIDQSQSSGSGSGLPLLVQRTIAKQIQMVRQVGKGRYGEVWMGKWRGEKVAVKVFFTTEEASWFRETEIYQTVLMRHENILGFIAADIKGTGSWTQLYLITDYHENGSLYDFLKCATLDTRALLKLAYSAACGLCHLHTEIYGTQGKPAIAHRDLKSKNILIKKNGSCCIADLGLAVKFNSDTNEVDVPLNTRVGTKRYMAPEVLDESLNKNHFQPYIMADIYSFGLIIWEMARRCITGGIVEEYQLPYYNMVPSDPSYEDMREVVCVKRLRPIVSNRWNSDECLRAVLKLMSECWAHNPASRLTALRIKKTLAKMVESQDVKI
Sequence of ALK2 (ACVR1) (Q04771 21-509): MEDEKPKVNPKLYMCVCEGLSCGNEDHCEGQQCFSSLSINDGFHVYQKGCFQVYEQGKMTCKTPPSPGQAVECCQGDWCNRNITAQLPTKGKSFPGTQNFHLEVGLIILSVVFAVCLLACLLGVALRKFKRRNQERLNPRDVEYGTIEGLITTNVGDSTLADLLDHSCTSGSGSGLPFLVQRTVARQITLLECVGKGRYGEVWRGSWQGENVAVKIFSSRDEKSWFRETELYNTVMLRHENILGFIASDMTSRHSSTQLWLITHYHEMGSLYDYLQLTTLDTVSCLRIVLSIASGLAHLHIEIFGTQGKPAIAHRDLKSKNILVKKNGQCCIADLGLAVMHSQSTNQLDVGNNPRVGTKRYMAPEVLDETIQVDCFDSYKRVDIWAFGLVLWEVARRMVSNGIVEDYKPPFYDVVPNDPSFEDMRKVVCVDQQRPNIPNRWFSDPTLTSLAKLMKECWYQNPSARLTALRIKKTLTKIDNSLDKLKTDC
Sequence of ALK1 (ACVRL1) (P37023 22-503): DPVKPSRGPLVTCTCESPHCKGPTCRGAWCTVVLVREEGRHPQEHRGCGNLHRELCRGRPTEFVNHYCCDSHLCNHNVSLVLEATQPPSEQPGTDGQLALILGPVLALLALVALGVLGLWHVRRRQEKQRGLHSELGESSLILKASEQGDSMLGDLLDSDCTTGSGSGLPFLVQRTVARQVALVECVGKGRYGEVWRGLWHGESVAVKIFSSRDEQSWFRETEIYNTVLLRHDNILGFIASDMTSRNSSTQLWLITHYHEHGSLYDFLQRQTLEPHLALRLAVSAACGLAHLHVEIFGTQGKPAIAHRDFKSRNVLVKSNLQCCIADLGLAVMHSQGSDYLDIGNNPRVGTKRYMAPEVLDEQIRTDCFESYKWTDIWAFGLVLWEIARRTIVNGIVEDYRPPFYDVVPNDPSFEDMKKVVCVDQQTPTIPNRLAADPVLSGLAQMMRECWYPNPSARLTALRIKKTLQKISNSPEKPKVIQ

| Structure (SMILES) | V ([1]; intravenous, 2 mg/kg) [L/kg] | AUC(0-t) [1, 3] [µM·h] | Cmax [1, 3] [nM] | AUC(0-t) ([1]; mouse, plasma, oral, 10 mg/kg) [µM·h] | Cmax ([1]; mouse, plasma, oral, 10 mg/kg) [nM] | Tmax ([1]; mouse, plasma, oral, 10 mg/kg) [h] | bioavailability ([1]; mouse, plasma, oral, 10 mg/kg) [%] | IC50 (ALK2 (ACVR1); 10 μM ATP) [µM] | IC50 (ALK3 (BMPR1A); 10 μM ATP) [µM] | IC50 (ALK6 (BMPR1B)) [µM] | IC50 (ALK2 (ACVR1)) [µM] | further results |
| --- | --- | --- | --- | --- | --- | --- | --- | --- | --- | --- | --- | --- |
| CC(=O)NCCNC(=O)c1cnccc1Nc1cc(-c2cc(Cl)ccc2F)ncc1C(C)C [compound 14, N-(2-acetamidoethyl)-4-[[2-(5-chloro-2-fluoro-phenyl)-5-isopropyl-4-pyridyl]amino]pyridine-3-carboxamide] | 3.86 | 1.57 | 3010 | 2.54 | 1880 | 0.5 | 32.5 | – | – | – | – | – |
| CC(C)c1cnc(-c2cc(Cl)ccc2F)cc1Nc1ccncc1C(=O)NCCN [compound 19, N-(2-aminoethyl)-4-[[2-(5-chloro-2-fluoro-phenyl)-5-isopropyl-4-pyridyl]amino]pyridine-3-carboxamide] | 21.1 | 1.19 | 520 | 0.927 | 198 | 1 | 15.5 | – | – | – | – | Brain Concentration ([2]; PO, 0.5 h): BLQ; Brain Concentration ([2]; PO, 1 h): BLQ; concentration at 0.5 h [2, 4]: 4 nM; concentration at 1 h [2, 5]: 3 nM; concentration at 0.5 h [2, 6]: 280 nM; concentration at 1 h [2, 7]: 183 nM; concentration at 0.5 h [2, 8]: 164 nM; concentration at 1 h [2, 9]: 198 nM |
| CC(C)c1cnc(-c2cc(Cl)ccc2F)cc1Nc1ccncc1C(=O)NC(CO)CO [compound 22, 4-[[2-(5-chloro-2-fluoro-phenyl)-5-isopropyl-4-pyridyl]amino]-N-[2-hydroxy-1-(hydroxymethyl)ethyl]pyridine-3-carboxamide] | 2.43 | 3.77 | 2460 | 16.2 | 7070 | 0.5 | 86.6 | – | – | – | – | half-life [1, 3]: 1.53 h; concentration at 0.5 h [2, 4]: 7 nM; concentration at 1 h [2, 5]: 5 nM; concentration at 0.5 h ([2]; brain, 10 mg/kg, PO, 0.5 h, read-out: Brain Concentration): 20 nM; concentration at 1 h ([2]; brain, 10 mg/kg, PO, 1 h, read-out: Brain Concentration): 15 nM; concentration at 0.5 h [2, 6]: 1690 nM; concentration at 1 h [2, 7]: 967 nM; concentration at 0.5 h [2, 8]: 7070 nM; concentration at 1 h [2, 9]: 3530 nM |
| C=C(C)c1cnc(-c2cc(Cl)ccc2F)cc1Nc1ccncc1C(=O)NCCO [compound 26, 4-[[2-(5-chloro-2-fluoro-phenyl)-5-isopropenyl-4-pyridyl]amino]-N-(2-hydroxyethyl)pyridine-3-carboxamide] | 6.21 | 1.76 | 3000 | 2.36 | 1290 | 0.5 | 26.9 | > 100 | > 100 | > 100 | – | clearance [1, 3]: 44.3 mL/min/kg; half-life [1, 3]: 1.62 h; half-life ([1]; mouse, plasma, oral, 10 mg/kg): 1.66 h |
| CC(C)c1cnc(-c2ncccc2F)cc1Nc1ccnc2[nH]ccc12 [compound 29, 2-(3-fluoropyridin-2-yl)-5-(propan-2-yl)-N-{1H-pyrrolo[2,3-b]pyridin-4-yl}pyridin-4-amine] | – | – | – | – | – | – | – | – | – | 15.3 | 60.6 | – |
| CC(C)c1cnc(-c2ncccc2F)cc1Nc1ncnc2[nH]ccc12 [compound 30, 2-(3-fluoropyridin-2-yl)-5-(propan-2-yl)-N-{7H-pyrrolo[2,3-d]pyrimidin-4-yl}pyridin-4-amine] | – | – | – | – | – | – | – | 73 | > 10 | 13.5 | – | – |
| Fc1ccc(Cl)cc1-c1cc(Nc2ccnc3[nH]ccc23)c(C2CC2)cn1 [compound 32, 2-(5-chloro-2-fluorophenyl)-5-cyclopropyl-N-{1H-pyrrolo[2,3-b]pyridin-4-yl}pyridin-4-amine] | – | – | – | – | – | – | – | – | 3.33 | – | 5.84 | – |
| C=C(C)c1cnc(-c2cc(Cl)ccc2F)cc1Nc1ccncc1C(=O)N1CCCC1 [compound 34, 2-(5-chloro-2-fluorophenyl)-5-(prop-1-en-2-yl)-N-[3-(pyrrolidine-1-carbonyl)pyridin-4-yl]pyridin-4-amine] | – | – | – | – | – | – | – | > 10 | > 10 | – | – | IC50 (ALK1 (ACVRL1)): > 10 µM |
| CC(C)c1cnc(-c2cc(Cl)ccc2F)cc1Nc1ncnc2[nH]ccc12 [compound 35, 2-(5-chloro-2-fluorophenyl)-5-(propan-2-yl)-N-{7H-pyrrolo[2,3-d]pyrimidin-4-yl}pyridin-4-amine] | – | – | – | – | – | – | – | – | – | – | 5.45 | – |
| CC(C)c1cnc(-c2cc(Cl)ccc2F)cc1Nc1ncnc2[nH]ncc12 [compound 36, 2-(5-chloro-2-fluorophenyl)-5-(propan-2-yl)-N-{1H-pyrazolo[3,4-d]pyrimidin-4-yl}pyridin-4-amine] | – | – | – | – | – | – | – | – | – | – | 8.93 | IC50 (ALK3 (BMPR1A)): > 10 µM |
